Experimental data as given in ChEMBL document CHEMBL3045439, “Isoforms of the heteropteran Nezara viridula ecdysone receptor: protein characterisation, RH5992 insecticide binding and homology modelling” (Pest Manag Sci, 2011).

How the values were obtained:
Assay type in all cases: protein-complex assay
Ecdysone receptor [1] = molecular target: T1, Ecdysone receptor (Nezara viridula, UniProt E5L6Y0+E5L6Y1); assay: Displacement of [3H]PonA from recombinant Nezara viridula EcR10
T1 sequence (E5L6Y1 whole entry): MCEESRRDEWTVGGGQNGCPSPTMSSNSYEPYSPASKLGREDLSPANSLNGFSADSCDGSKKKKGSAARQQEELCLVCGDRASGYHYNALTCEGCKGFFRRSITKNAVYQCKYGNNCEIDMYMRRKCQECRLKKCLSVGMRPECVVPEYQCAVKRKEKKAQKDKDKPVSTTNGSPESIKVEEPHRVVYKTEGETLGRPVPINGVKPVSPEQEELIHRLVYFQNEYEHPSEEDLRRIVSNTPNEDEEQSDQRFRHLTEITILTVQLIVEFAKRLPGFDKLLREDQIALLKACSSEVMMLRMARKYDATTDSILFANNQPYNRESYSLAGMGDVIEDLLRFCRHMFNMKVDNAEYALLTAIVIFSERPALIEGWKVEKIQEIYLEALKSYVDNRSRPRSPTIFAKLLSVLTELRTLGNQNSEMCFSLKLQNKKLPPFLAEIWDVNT
T1 sequence (E5L6Y0 whole entry): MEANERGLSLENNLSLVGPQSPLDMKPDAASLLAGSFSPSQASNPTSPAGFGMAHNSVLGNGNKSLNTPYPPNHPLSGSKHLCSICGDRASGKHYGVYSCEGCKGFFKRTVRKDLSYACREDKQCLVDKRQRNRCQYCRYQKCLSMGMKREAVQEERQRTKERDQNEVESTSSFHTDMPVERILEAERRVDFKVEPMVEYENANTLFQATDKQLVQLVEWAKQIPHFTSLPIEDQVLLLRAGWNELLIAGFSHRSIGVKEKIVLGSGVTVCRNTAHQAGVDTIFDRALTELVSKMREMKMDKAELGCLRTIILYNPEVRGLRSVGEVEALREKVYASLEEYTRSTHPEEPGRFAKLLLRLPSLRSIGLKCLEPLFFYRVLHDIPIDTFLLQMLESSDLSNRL

Ecdysone receptor [2] = molecular target: T1, Ecdysone receptor; assay: Displacement of [3H]PonA from recombinant Nezara viridula EcR11
Ecdysone receptor [3] = molecular target: T2, Ecdysone receptor (Spodoptera frugiperda, UniProt Q8MWR1+Q8MWR2); assay: Binding affinity to Spodoptera frugiperda (fall armyworm) EcR
T2 sequence (Q8MWR2 whole entry): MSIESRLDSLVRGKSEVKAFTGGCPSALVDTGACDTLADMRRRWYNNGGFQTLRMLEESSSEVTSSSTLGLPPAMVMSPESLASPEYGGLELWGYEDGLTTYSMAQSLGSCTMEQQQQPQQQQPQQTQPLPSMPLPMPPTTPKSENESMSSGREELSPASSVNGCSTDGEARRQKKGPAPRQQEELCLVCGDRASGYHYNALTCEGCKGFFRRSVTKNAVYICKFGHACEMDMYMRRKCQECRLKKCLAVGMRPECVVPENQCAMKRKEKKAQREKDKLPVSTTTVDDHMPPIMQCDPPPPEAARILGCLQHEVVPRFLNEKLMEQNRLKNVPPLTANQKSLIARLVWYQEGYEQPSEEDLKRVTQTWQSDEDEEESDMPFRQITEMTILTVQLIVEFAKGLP
T2 sequence (Q8MWR1 whole entry): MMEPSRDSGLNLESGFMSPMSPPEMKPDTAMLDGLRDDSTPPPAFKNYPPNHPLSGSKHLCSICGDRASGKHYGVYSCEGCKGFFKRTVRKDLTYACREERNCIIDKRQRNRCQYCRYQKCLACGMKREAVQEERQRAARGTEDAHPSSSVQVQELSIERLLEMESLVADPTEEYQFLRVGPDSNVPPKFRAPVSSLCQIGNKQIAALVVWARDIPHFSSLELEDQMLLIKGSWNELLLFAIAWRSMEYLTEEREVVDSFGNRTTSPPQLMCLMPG

Ecdysone receptor [4] = molecular target: T1, Ecdysone receptor; assay: Binding affinity to Nezara viridula EcR
Ecdysone receptor [5] = molecular target: T3, Ecdysone receptor (Leptinotarsa decemlineata, UniProt Q4W6C8+Q4W6D0); assay: Binding affinity to Leptinotarsa decemlineata EcR
T3 sequence (Q4W6D0 whole entry): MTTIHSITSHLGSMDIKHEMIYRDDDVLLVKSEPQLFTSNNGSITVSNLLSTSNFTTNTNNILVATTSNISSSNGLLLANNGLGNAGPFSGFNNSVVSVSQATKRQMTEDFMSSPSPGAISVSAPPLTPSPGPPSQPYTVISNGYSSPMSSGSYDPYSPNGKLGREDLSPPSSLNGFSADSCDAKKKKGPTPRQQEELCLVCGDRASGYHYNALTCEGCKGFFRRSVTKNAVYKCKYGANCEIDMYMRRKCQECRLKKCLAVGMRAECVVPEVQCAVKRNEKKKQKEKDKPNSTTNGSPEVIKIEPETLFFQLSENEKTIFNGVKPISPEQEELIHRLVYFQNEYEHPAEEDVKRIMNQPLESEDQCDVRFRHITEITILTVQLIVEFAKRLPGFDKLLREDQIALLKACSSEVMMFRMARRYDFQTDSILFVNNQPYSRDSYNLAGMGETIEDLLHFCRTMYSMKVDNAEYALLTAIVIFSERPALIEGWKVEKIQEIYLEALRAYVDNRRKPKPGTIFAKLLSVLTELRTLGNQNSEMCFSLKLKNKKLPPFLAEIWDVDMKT
T3 sequence (Q4W6C8 whole entry): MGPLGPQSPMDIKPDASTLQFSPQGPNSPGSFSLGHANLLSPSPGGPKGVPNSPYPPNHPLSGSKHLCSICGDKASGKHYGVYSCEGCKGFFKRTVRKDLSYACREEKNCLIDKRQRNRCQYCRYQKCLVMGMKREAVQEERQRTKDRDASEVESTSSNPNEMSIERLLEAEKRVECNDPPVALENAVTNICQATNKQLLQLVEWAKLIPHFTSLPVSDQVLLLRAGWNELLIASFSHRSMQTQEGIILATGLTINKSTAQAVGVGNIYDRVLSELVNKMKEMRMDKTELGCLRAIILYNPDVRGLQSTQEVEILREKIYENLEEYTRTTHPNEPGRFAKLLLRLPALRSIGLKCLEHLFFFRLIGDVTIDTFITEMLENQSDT

Ecdysone receptor [6] = molecular target: T4, Ecdysone receptor (Drosophila melanogaster, UniProt P20153+P34021); assay: Binding affinity to Drosophila melanogaster EcR
T4 sequence (P34021 whole entry): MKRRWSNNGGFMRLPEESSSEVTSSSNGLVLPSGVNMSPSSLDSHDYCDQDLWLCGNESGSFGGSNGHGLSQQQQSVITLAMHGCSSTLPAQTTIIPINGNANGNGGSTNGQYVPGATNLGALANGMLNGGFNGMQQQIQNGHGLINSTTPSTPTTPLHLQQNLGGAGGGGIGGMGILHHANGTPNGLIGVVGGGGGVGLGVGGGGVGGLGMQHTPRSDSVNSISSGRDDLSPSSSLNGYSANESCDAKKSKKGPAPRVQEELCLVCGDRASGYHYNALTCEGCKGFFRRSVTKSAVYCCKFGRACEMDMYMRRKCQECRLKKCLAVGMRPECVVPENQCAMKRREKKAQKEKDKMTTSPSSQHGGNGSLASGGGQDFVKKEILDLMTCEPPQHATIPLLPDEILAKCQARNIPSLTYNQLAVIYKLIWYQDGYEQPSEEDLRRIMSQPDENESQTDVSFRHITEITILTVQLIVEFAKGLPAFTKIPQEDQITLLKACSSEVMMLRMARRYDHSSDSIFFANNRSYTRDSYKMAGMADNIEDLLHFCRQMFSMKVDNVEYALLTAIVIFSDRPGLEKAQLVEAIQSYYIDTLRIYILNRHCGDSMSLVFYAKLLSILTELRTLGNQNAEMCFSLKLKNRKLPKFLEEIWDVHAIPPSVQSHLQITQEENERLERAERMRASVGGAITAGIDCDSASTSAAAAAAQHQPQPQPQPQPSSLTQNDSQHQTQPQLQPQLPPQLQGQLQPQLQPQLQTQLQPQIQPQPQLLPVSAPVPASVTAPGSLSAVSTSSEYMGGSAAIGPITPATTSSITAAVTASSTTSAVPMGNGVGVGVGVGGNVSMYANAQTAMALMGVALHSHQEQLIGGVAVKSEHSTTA
T4 sequence (P20153 whole entry): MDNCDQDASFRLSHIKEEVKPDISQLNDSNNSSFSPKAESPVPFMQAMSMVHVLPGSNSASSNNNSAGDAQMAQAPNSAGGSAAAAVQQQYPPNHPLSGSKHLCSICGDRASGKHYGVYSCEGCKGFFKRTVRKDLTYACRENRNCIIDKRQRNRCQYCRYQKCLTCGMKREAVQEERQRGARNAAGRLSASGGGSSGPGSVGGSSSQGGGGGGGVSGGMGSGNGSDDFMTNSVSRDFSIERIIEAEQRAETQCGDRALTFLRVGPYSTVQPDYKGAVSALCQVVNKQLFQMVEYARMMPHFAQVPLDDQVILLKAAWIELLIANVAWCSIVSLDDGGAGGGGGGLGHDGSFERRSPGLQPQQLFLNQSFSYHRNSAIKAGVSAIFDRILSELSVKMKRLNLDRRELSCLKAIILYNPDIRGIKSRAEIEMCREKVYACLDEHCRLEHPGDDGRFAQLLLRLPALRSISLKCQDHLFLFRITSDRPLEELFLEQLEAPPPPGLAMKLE

SMILES | IC50 (Ecdysone receptor [1]) | Ki (Ecdysone receptor [1]) | IC50 (Ecdysone receptor [2]) | Ki (Ecdysone receptor [2]) | IC50 (Ecdysone receptor [3]) | IC50 (Ecdysone receptor [4]) | IC50 (Ecdysone receptor [5]) | IC50 (Ecdysone receptor [6])
CC(C)CC[C@@H](O)[C@](C)(O)[C@H]1CC[C@@]2(O)C3=CC(=O)[C@@H]4C[C@@H](O)[C@@H](O)C[C@]4(C)[C@H]3CC[C@]12C [PONASTERONE A] | 280 nM | 200 nM | 250 nM | 200 nM | – | – | – | –
CC(CO)CC[C@@H](O)[C@](C)(O)[C@H]1CC[C@@]2(O)C3=CC(=O)[C@@H]4C[C@@H](O)[C@@H](O)C[C@]4(C)[C@H]3CC[C@]12C (stereo not given in full) [INOKOSTERONE] | 8000 nM | 6700 nM | 7000 nM | 6000 nM | – | – | – | –
CC(C)CC[C@@H](O)[C@](C)(O)[C@H]1CC[C@@]2(O)C3=CC(=O)[C@]4(O)C[C@@H](O)[C@@H](O)C[C@]4(C)[C@H]3[C@H](O)C[C@]12C [MURISTERONE A] | 130 nM | 100 nM | 150 nM | 100 nM | – | – | – | –
C[C@H]([C@H](O)CCC(C)(C)O)[C@H]1CC[C@@]2(O)C3=CC(=O)[C@@H]4C[C@@H](O)[C@@H](O)C[C@]4(C)[C@H]3CC[C@]12C [ECDYSONE] | 60000 nM | 50400 nM | 60000 nM | 51100 nM | – | – | – | –
C[C@H](C[C@@H](O)[C@](C)(O)[C@H]1CC[C@@]2(O)C3=CC(=O)[C@@H]4C[C@@H](O)[C@@H](O)C[C@]4(C)[C@H]3CC[C@]12C)C(C)(C)O [MAKISTERONE A] | – | – | – | – | 389 nM | 1380 nM | 1740 nM | 1380 nM
